Assay results reported in US20230330069A1, “USE OF THIAZOLIDES AGAINST CORONAVIRUSES” (Romark Laboratories, L.C., priority 2020, published 2023).
Like-named read-outs stand apart in the source and are kept apart here.

Key:
[1] = in vivo
Description: (§1) After randomization, eligible subjects underwent a physical examination, collection of nasopharyngeal swabs, and blood and urine samples for laboratory safety testing and assessment of SARS-CoV-2 antibody titers. Study drug was dispensed, and subjects were followed for 28 days. Subjects were instructed to complete electronic diaries recording oral temperature twice daily and symptom severity once daily in the evening for 21 days and were contacted daily by telephone by site staff on study days 2-7 and 28 to verify compliance and screen for progression to severe illness or other complications. Repeat nasopharyngeal swabs were collected on study days 4 and 10. Follow up blood and urine samples for laboratory safety testing and assessment of SARS-CoV-2 antibody titers were collected on study day 22. Subjects were allowed to use acetaminophen and/or dextromethorphan for symptom relief along with standard-of-care rescue medications. Adverse events were collected continuously throughout the study and monitored until the events resolved.
(§2) Efficacy analyses were based on a modified intention to treat (mITT) population of subjects testing positive for SARS-CoV-2 at baseline.

[2] = Example 5 trial: safety analyses (adverse events); settings: one severe COVID-19, one aspiration (SARS-CoV-2 negative); not considered related to study medication
Description: as §1, §2

[3] = tested on: SARS-CoV-2 RNA; format: in vivo; settings: for Mean (SD) Viral Load Change from Baseline / Percent Positive for SARS-CoV-2 RNA: nasopharyngeal swabs; for Percent Positive for SARS-CoV-2 RNA: 177 samples
[4] = tested on: SARS-CoV-2; format: in vivo
[5] = tested on: COVID-19; settings: 600 mg twice daily for seven days; hospitalized moderate to severe COVID-19; cited from earlier work
[6] = Example 1 trial: adverse events / tolerability; format: in vivo, human; settings: 600 mg orally twice daily
[7] = 133 subjects with moderate illness at baseline
[8] = all SARS-CoV-2-positive subjects (mITT)
[9] = all SARS-CoV-2-positive subjects (mITT), 600 mg twice daily for 5 days
[10] = all SARS-CoV-2-positive subjects (mITT), listed as NTZ
[11] = all SARS-CoV-2-positive subjects (mITT), listed as nitazoxanide
[12] = subgroup 'May Be' or 'At Increased Risk' for severe COVID-19 per CDC (protocol-defined stratification factor)
[13] = subgroup At High Risk of progressing to severe COVID-19 and/or hospitalization (per EUA documents for monoclonal antibodies)
[14] = subgroup At Increased Risk for severe COVID-19 per CDC

CC(=O)Oc1ccccc1C(=O)Nc1ncc([N+](=O)[O-])s1 [Nitazoxanide, 2-(acetolyloxy)-N-(5-nitro-2-thiazolyl) benzamide]
subjects reporting at least one adverse event (%) ([1]; human): 13.3% | subjects reporting diarrhea (%) ([1]; human): 3.4% | subjects reporting at least one adverse event (number) [1]: Sixty-three | subjects reporting serious adverse events [1]: Two | subjects who discontinued study medication due to adverse events [1]: Two | safety and tolerability ([1]; po): safe and well tolerated | subjects who died during the study [2]: Two | Mean (SD) Viral Load Change from Baseline ([3]; Day 4): −0.70 (1.573) log10 copies/mL | Percent Positive for SARS-CoV-2 RNA ([3]; Day 4): 94% | Mean (SD) Viral Load Change from Baseline ([3]; Day 10): −2.49 (1.582) log10 copies/mL | Percent Positive for SARS-CoV-2 RNA ([3]; Day 10): 73% | Viral Load Day 4 ([3]; single NTZ-treated subject who progressed to severe COVID-19, Day 1 value 7.39): 7.39/4.79 log10 RNA copies/mL | subjects progressing to severe illness ([4]; 68 subjects with moderate illness at baseline in nitazoxanide arm, placebo two of 65): None and none | TSR vs placebo [4, 7]: longer | time to return to usual health vs placebo [4, 7]: longer | relative reduction in rate of hospitalization, emergency room visit or death vs placebo [4, 8]: 82% | relative reduction of progression to severe COVID-19 vs placebo [4, 8]: 85% | subjects experiencing hospitalization, emergency room visit or death (%) [4, 8]: 0.5% | subjects experiencing hospitalization, emergency room visit or death (n/N) [4, 8]: 1/184 | subjects progressing to severe COVID-19 (%) [4, 9]: 0.5% | subjects progressing to severe COVID-19 (n/N) [4, 9]: 1/184 | subjects progressing to severe COVID-19 (%) ([4]; all SARS-CoV-2-positive subjects (mITT), 600 mg twice daily for 5 days, listed as NTZ): (0.5%) | subjects progressing to severe COVID-19 (%) ([4]; all SARS-CoV-2-positive subjects (mITT), 600 mg twice daily for 5 days, listed as nitazoxanide): 0.5% | relative reduction in rate of hospitalization, emergency room visit or death vs placebo [4, 10]: 82% | relative reduction of progression to severe COVID-19 vs placebo [4, 10]: 85% | subjects experiencing hospitalization, emergency room visit or death (%) [4, 10]: (0.5%) | relative reduction in rate of hospitalization, emergency room visit or death vs placebo [4, 11]: 82% | relative reduction of progression to severe COVID-19 vs placebo [4, 11]: 85% | Median (IQR) time from first dose to sustained response (TSR) ([4]; all mITT subjects, placebo 12.35 (7.18->21), p=0.88): 13.28 (6.26->21) days | relative reduction in rate of hospitalization, emergency room visit or death vs placebo [4, 12]: 81% | relative reduction of progression to severe COVID-19 vs placebo [4, 12]: 84% | subjects experiencing hospitalization, emergency room visit or death (%) [4, 12]: (0.9%) | subjects experiencing hospitalization, emergency room visit or death (n/N) [4, 12]: 1/112 | subjects progressing to severe COVID-19 (%) [4, 12]: (0.9%) | subjects progressing to severe COVID-19 (n/N) [4, 12]: 1/112 | relative reduction in rate of hospitalization, emergency room visit or death vs placebo [4, 13]: 77% | relative reduction of progression to severe COVID-19 vs placebo [4, 13]: 81% | subjects experiencing hospitalization, emergency room visit or death (%) [4, 13]: (1.7%) | subjects experiencing hospitalization, emergency room visit or death (n/N) [4, 13]: 1/60 | subjects progressing to severe COVID-19 (%) [4, 13]: (1.7%) | subjects progressing to severe COVID-19 (n/N) [4, 13]: 1/60 | relative reduction in rate of hospitalization, emergency room visit or death vs placebo [4, 14]: 81% | relative reduction of progression to severe COVID-19 vs placebo [4, 14]: 83% | subjects experiencing hospitalization, emergency room visit or death (%) [4, 14]: (1.0%) | subjects experiencing hospitalization, emergency room visit or death (n/N) [4, 14]: 1/104 | subjects progressing to severe COVID-19 (%) [4, 14]: (1.0%) | subjects progressing to severe COVID-19 (n/N) [4, 14]: 1/104 | median TSR ([4]; subjects with mild illness at baseline, n=116, placebo 13.4): 10.3 days | reduction of median time to return to usual health vs placebo ([4]; subjects with mild illness at baseline, p=0.0075): 5.2 days | reduction of median TSR (time to sustained clinical recovery) vs placebo ([4]; subjects with mild illness at baseline, p=0.0932): 3.1 days | median time from first dose until subjects reported returning to usual health ([4]; subjects with mild illness at baseline, placebo 18.4): 13.2 days | duration of supplemental oxygen vs placebo [5]: reductions | rate of mechanical ventilation vs placebo [5]: reductions | rate of mortality vs placebo [5]: reductions | time to hospital discharge vs placebo [5]: reductions | adverse event: mild chromaturia, subjects ([6]; placebo 1.0%): 14.6% | adverse event: diarrhea, subjects ([6]; placebo 4.9%): 6.6%
